From the NIST ThermoML archive (doi:10.1021/je800110r)
Numbers after ± are expanded uncertainties.

Conditions: 283.15 K, Liquid, Vibrating tube method

CCCCCCCCCC [decane]
Conditions	mass density [kg/m3]
11428 kPa	745.5 ± 2
11443 kPa	745.5 ± 2
11462 kPa	745.5 ± 2
11483 kPa	745.5 ± 2
11498 kPa	745.5 ± 2
11518 kPa	745.4 ± 2
11530 kPa	745.6 ± 2
11543 kPa	745.5 ± 2
11625 kPa	745.7 ± 2
11647 kPa	745.7 ± 2
11663 kPa	745.7 ± 2
11681 kPa	745.6 ± 2
11774 kPa	745.8 ± 2
11790 kPa	745.8 ± 2
11806 kPa	745.8 ± 2
11824 kPa	745.8 ± 2
11838 kPa	745.7 ± 2
11856 kPa	745.8 ± 2
11876 kPa	745.9 ± 2
11889 kPa	745.8 ± 2
11904 kPa	745.8 ± 2
11924 kPa	745.9 ± 2
11943 kPa	745.8 ± 2
11954 kPa	745.8 ± 2
11969 kPa	745.9 ± 2
11982 kPa	746 ± 2
11997 kPa	745.9 ± 2
12010 kPa	746 ± 2
12024 kPa	745.9 ± 2
12038 kPa	746 ± 2
12052 kPa	745.9 ± 2
12068 kPa	745.9 ± 2
12080 kPa	746 ± 2
12094 kPa	745.9 ± 2
12108 kPa	746 ± 2
12130 kPa	746 ± 2
12149 kPa	746 ± 2
12165 kPa	745.9 ± 2
12180 kPa	746.1 ± 2
12197 kPa	746 ± 2
12211 kPa	746 ± 2
12226 kPa	746 ± 2
12241 kPa	745.9 ± 2
12262 kPa	746.1 ± 2
12280 kPa	746.1 ± 2
12300 kPa	746 ± 2
12319 kPa	746.1 ± 2
12339 kPa	746.1 ± 2
12356 kPa	746.1 ± 2
12371 kPa	746.1 ± 2
12386 kPa	746.2 ± 2
12401 kPa	746.1 ± 2
12415 kPa	746.2 ± 2
12431 kPa	746.2 ± 2
12451 kPa	746.3 ± 2
12469 kPa	746.2 ± 2
12484 kPa	746.2 ± 2
12505 kPa	746.2 ± 2
12519 kPa	746.2 ± 2
12535 kPa	746.3 ± 2
12550 kPa	746.3 ± 2
12571 kPa	746.3 ± 2
12588 kPa	746.3 ± 2
12602 kPa	746.3 ± 2
12618 kPa	746.3 ± 2
12633 kPa	746.3 ± 2
12649 kPa	746.3 ± 2
12665 kPa	746.3 ± 2
12678 kPa	746.3 ± 2
12693 kPa	746.4 ± 2
12709 kPa	746.4 ± 2
12725 kPa	746.3 ± 2
12741 kPa	746.3 ± 2
12756 kPa	746.4 ± 2
12772 kPa	746.5 ± 2
12794 kPa	746.4 ± 2
12812 kPa	746.3 ± 2
12837 kPa	746.4 ± 2
12855 kPa	746.5 ± 2
12877 kPa	746.5 ± 2
12895 kPa	746.6 ± 2
12914 kPa	746.5 ± 2
12933 kPa	746.5 ± 2
12955 kPa	746.4 ± 2
12972 kPa	746.5 ± 2
12994 kPa	746.6 ± 2
13013 kPa	746.5 ± 2
13033 kPa	746.5 ± 2
13052 kPa	746.5 ± 2
13075 kPa	746.5 ± 2
13095 kPa	746.6 ± 2
13117 kPa	746.6 ± 2
13316 kPa	746.8 ± 2
13337 kPa	746.7 ± 2
13598 kPa	746.9 ± 2
13632 kPa	746.9 ± 2
13652 kPa	747 ± 2
13673 kPa	747 ± 2
13697 kPa	746.9 ± 2
13715 kPa	747 ± 2
13740 kPa	747 ± 2
13765 kPa	747.1 ± 2
13787 kPa	747.1 ± 2
13809 kPa	747 ± 2
13831 kPa	747.1 ± 2
13856 kPa	747 ± 2
13875 kPa	747.2 ± 2
13901 kPa	747.1 ± 2
13923 kPa	747.1 ± 2
13949 kPa	747.1 ± 2
13968 kPa	747.2 ± 2
13994 kPa	747.2 ± 2
14017 kPa	747.2 ± 2
14039 kPa	747.2 ± 2
14062 kPa	747.3 ± 2
14088 kPa	747.2 ± 2
14138 kPa	747.2 ± 2
14164 kPa	747.3 ± 2
14191 kPa	747.4 ± 2
14216 kPa	747.4 ± 2
14359 kPa	747.4 ± 2
14385 kPa	747.5 ± 2
14411 kPa	747.4 ± 2
14428 kPa	747.6 ± 2
14446 kPa	747.5 ± 2
14481 kPa	747.5 ± 2
14499 kPa	747.5 ± 2
14528 kPa	747.6 ± 2
14543 kPa	747.6 ± 2
14563 kPa	747.5 ± 2
14578 kPa	747.6 ± 2
14599 kPa	747.6 ± 2
14614 kPa	747.6 ± 2
14632 kPa	747.6 ± 2
14650 kPa	747.6 ± 2
14668 kPa	747.7 ± 2
14686 kPa	747.7 ± 2
14704 kPa	747.6 ± 2
14722 kPa	747.7 ± 2
14741 kPa	747.7 ± 2
14759 kPa	747.7 ± 2
14777 kPa	747.6 ± 2
14795 kPa	747.6 ± 2
14826 kPa	747.7 ± 2
14844 kPa	747.7 ± 2
14862 kPa	747.7 ± 2
14881 kPa	747.8 ± 2
14903 kPa	747.7 ± 2
14925 kPa	747.8 ± 2
14941 kPa	747.8 ± 2
14963 kPa	747.8 ± 2
14979 kPa	747.8 ± 2
14998 kPa	747.9 ± 2
15017 kPa	748 ± 2
15036 kPa	747.9 ± 2
15055 kPa	747.9 ± 2
15077 kPa	747.9 ± 2
15100 kPa	747.8 ± 2
15119 kPa	747.9 ± 2
15139 kPa	747.9 ± 2
15239 kPa	748 ± 2
15312 kPa	748 ± 2
15351 kPa	748.1 ± 2
15368 kPa	748.1 ± 2
15391 kPa	748.2 ± 2
15415 kPa	748 ± 2
15442 kPa	748.1 ± 2
15466 kPa	748.3 ± 2
15486 kPa	748.1 ± 2
15507 kPa	748.2 ± 2
15524 kPa	748.3 ± 2
15545 kPa	748.3 ± 2
15569 kPa	748.3 ± 2
15590 kPa	748.2 ± 2
15617 kPa	748.3 ± 2
15645 kPa	748.4 ± 2
15669 kPa	748.2 ± 2
15693 kPa	748.3 ± 2
15718 kPa	748.3 ± 2
15743 kPa	748.2 ± 2
15771 kPa	748.4 ± 2
15799 kPa	748.3 ± 2
15821 kPa	748.3 ± 2
15850 kPa	748.3 ± 2
15874 kPa	748.4 ± 2
15899 kPa	748.4 ± 2
15920 kPa	748.6 ± 2
15949 kPa	748.5 ± 2
15981 kPa	748.6 ± 2
16007 kPa	748.4 ± 2
16028 kPa	748.6 ± 2
16083 kPa	748.6 ± 2
16109 kPa	748.6 ± 2
16135 kPa	748.5 ± 2
16168 kPa	748.6 ± 2
16191 kPa	748.6 ± 2
16221 kPa	748.6 ± 2
16257 kPa	748.7 ± 2
16288 kPa	748.7 ± 2
16310 kPa	748.7 ± 2
16344 kPa	748.8 ± 2
16378 kPa	748.7 ± 2
16405 kPa	748.8 ± 2
16433 kPa	748.8 ± 2
16467 kPa	748.7 ± 2
16494 kPa	748.9 ± 2
16528 kPa	748.8 ± 2
16560 kPa	748.9 ± 2
16587 kPa	749 ± 2
16619 kPa	748.8 ± 2
16643 kPa	749 ± 2
16667 kPa	749 ± 2
16703 kPa	748.8 ± 2
16739 kPa	749 ± 2
16759 kPa	748.8 ± 2
16796 kPa	749 ± 2
16824 kPa	749 ± 2
16852 kPa	749.1 ± 2
16880 kPa	749 ± 2
16905 kPa	748.9 ± 2
16938 kPa	749.2 ± 2
16967 kPa	749.2 ± 2
16993 kPa	749.1 ± 2
17030 kPa	749.2 ± 2
17063 kPa	749.1 ± 2
17088 kPa	749.1 ± 2
17127 kPa	749.2 ± 2
17153 kPa	749.2 ± 2
17192 kPa	749.2 ± 2
17213 kPa	749.3 ± 2
17240 kPa	749.3 ± 2
17267 kPa	749.4 ± 2
17293 kPa	749.4 ± 2
17316 kPa	749.4 ± 2
17343 kPa	749.4 ± 2
17366 kPa	749.5 ± 2
17390 kPa	749.4 ± 2
17422 kPa	749.4 ± 2
17451 kPa	749.3 ± 2
17470 kPa	749.5 ± 2
17498 kPa	749.4 ± 2
17521 kPa	749.4 ± 2
17549 kPa	749.4 ± 2
17626 kPa	749.5 ± 2
17652 kPa	749.5 ± 2
17711 kPa	749.6 ± 2
17734 kPa	749.6 ± 2
17770 kPa	749.5 ± 2
17792 kPa	749.7 ± 2
17815 kPa	749.7 ± 2
17841 kPa	749.8 ± 2
17864 kPa	749.7 ± 2
17898 kPa	749.9 ± 2
17925 kPa	749.6 ± 2
17948 kPa	749.7 ± 2
17982 kPa	749.9 ± 2
18017 kPa	749.8 ± 2
18044 kPa	749.8 ± 2
18071 kPa	749.9 ± 2
18099 kPa	749.9 ± 2
18130 kPa	749.9 ± 2
18154 kPa	749.9 ± 2
18178 kPa	749.9 ± 2
18210 kPa	750 ± 2
18246 kPa	750 ± 2
18305 kPa	750 ± 2
18383 kPa	750 ± 2
18574 kPa	750.2 ± 2
18652 kPa	750.2 ± 2
18691 kPa	750.2 ± 2
18719 kPa	750.1 ± 2
18746 kPa	750.2 ± 2
18770 kPa	750.3 ± 2
18793 kPa	750.3 ± 2
